Measurements reported in article PMC6009961, “Novel 1-(2-pyrimidin-2-yl)piperazine derivatives as selective monoamine oxidase (MAO)-A inhibitors” (Journal of Enzyme Inhibition and Medicinal Chemistry, 2017).
Entries after “also recorded” stand apart in the source; their conditions may differ.

Experiments:
Assay type in all cases: biochemical
[1] = biological target: T1, MAO-A enzyme (Homo sapiens, UniProt P21397); test: MAO activity assay, fluorimetric, kynuramine substrate (MAO-A); settings: for MAO-A versus MAO-B selectivity: from inhibition rates at 10^−4 M
T1 construct: purchased Sigma-Aldrich Chemicals (St. Louis, MO)
T1 sequence (P21397 1-527): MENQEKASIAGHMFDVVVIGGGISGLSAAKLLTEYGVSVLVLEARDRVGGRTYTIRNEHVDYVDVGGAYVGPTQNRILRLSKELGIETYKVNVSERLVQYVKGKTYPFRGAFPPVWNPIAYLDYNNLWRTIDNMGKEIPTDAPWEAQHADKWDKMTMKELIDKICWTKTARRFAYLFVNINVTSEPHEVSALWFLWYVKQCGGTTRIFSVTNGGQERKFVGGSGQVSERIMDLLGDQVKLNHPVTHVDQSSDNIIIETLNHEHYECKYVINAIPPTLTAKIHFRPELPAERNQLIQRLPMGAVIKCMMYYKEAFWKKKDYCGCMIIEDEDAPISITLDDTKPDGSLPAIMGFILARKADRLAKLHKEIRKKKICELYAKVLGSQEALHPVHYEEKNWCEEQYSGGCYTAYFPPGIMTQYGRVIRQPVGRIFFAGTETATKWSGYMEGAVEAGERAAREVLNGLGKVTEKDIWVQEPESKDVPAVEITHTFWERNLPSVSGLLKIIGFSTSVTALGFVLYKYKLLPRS

[2] = biological target: T2, human recombinant MAO-B (Homo sapiens, UniProt P27338); test: MAO activity assay, fluorimetric, kynuramine substrate (MAO-B)
T2 construct: purchased Sigma-Aldrich Chemicals (St. Louis, MO)
T2 sequence (P27338 1-520): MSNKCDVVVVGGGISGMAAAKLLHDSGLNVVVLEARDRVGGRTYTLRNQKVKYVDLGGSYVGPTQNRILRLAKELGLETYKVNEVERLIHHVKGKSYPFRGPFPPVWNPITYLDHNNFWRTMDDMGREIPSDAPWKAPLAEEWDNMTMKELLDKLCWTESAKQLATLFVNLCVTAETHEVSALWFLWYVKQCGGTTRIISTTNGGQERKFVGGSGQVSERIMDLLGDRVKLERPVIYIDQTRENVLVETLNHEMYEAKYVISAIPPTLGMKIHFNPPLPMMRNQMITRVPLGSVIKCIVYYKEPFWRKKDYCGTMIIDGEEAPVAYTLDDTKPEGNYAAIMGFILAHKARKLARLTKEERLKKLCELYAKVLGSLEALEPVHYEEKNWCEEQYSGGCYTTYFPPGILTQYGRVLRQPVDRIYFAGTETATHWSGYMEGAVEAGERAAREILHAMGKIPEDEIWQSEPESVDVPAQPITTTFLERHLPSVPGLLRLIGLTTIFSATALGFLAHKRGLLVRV

[3] = biological target: T1, MAO-A enzyme; test: MAO-A enzyme kinetics (Lineweaver-Burk plots)
Experimental: The nature of MAO-A inhibition, caused by this compound, was investigated by the graphical analysis of steady-state inhibition data.
Figure 2. […] Substrate (kynuramine) concentrations used: 40, 20, 10, 5, 2.5 and 1.25 μM. 1/V: 1/velocity of reaction [1/(nmoles/min/mg protein)], 1/S: 1/substrate concentration (1/μM).
The same materials were used in MAO enzyme kinetic assay. The compound 2e was prepared at IC50 concentration and then added to the wells (100 µL/well). Stock solution (25 mM) of kynuramine was diluted to final concentrations of 40, 20, 10, 5, 2.5 and 1.25 µM and then added to the wells (50 µL/well). After MAO-A enzyme was added to the plate (50 µL/well), incubation period at 37 °C for 20 min was started. The plate was read at 310/340 nm excitation/emission wavelength pair[31]. Control measurement without inhibitor was also determined simultaneously. The results were analyzed in Lineweaver–Burk plots using Microsoft Office Excel 2013.

SMILES | IC50 [1] | MAO-A inhibition % ([1]; 10^−3 M) | MAO-A inhibition % ([1]; 10^−4 M) | IC50 [2] | MAO B inhibition % ([2]; 10^−4 M) | MAO B inhibition % ([2]; 10^−3 M) | MAO-A inhibition % ([1]; 10^−5 M) | MAO-A inhibition % ([1]; 10^−6 M) | MAO-A inhibition % ([1]; 10^−7 M) | MAO-A inhibition % ([1]; 10^−8 M) | MAO-A inhibition % ([1]; 10^−9 M) | MAO-A versus MAO-B selectivity [1] | nature of MAO-A inhibition ([3]; Lineweaver–Burk plots, kynuramine 40-1.25 μM) | Vmax ([3]; nonlinear regression, MAO-A, kynuramine)
O=C(CSC(=S)N1CCN(c2ccccc2)CC1)N1CCN(c2ncccn2)CC1 [Compound 2f, 2-[4-(Pyrimidin-2-yl)piperazin-1-yl]-2-oxoethyl 4-phenylpiperazine-1-carbodithioate] | > 1000 µM | 33.33 ± 1.30% | 31.25 ± 0.88% | > 100 µM | 31.15 ± 0.67% | – | – | – | – | – | – | – | – | –
CN1CCN(C(=S)SCC(=O)N2CCN(c3ncccn3)CC2)CC1 [Compound 2a, 2-[4-(Pyrimidin-2-yl)piperazin-1-yl]-2-oxoethyl 4-methylpiperazine-1-carbodithioate] | > 1000 µM | 12.84 ± 0.59% | 7.33 ± 0.19% | > 1000 µM | 5.37 ± 0.22% | 10.23 ± 0.31% | – | – | – | – | – | – | – | –
O=C(CSC(=S)N1CCN(CCO)CC1)N1CCN(c2ncccn2)CC1 [Compound 2c, 2-[4-(Pyrimidin-2-yl)piperazin-1-yl]-2-oxoethyl 4-(2-hydroxyethyl)piperazine-1-carbodithioate] | > 1000 µM | 15.88 ± 0.55% | 9.27 ± 0.27% | > 1000 µM | 7.39 ± 0.25% | 12.30 ± 0.48% | – | – | – | – | – | – | – | –
O=C(CSC(=S)N1CCN(c2ncccn2)CC1)N1CCN(c2ncccn2)CC1 [Compound 2n, 2-[4-(Pyrimidin-2-yl)piperazin-1-yl]-2-oxoethyl 4-(pyrimidin-2-yl)piperazine-1-carbodithioate] | > 1000 µM | 31.25 ± 0.94% | 25.00 ± 0.62% | > 1000 µM | 22.95 ± 0.69% | 29.51 ± 0.74% | – | – | – | – | – | – | – | –
O=C(CSC(=S)N1CCN(c2ccc([N+](=O)[O-])cc2)CC1)N1CCN(c2ncccn2)CC1 [Compound 2j, 2-[4-(Pyrimidin-2-yl)piperazin-1-yl]-2-oxoethyl 4-(4-nitrophenyl)piperazine-1-carbodithioate] | 23.1 µM | – | – | > 100 µM | 40.98 ± 0.94% | – | 42.45 ± 1.18% | 29.70 ± 0.72% | 20.19 ± 0.64% | 16.05 ± 0.40% | 11.53 ± 0.29% | selective MAO-A inhibitory activity; also recorded: selective MAO-A enzyme inhibitors | mix-typed inhibitor | 5.34
CCN1CCN(C(=S)SCC(=O)N2CCN(c3ncccn3)CC2)CC1 [Compound 2b, 2-[4-(Pyrimidin-2-yl)piperazin-1-yl]-2-oxoethyl 4-ethylpiperazine-1-carbodithioate] | > 1000 µM | 11.52 ± 0.38% | 6.86 ± 0.21% | > 1000 µM | 5.65 ± 0.14% | 10.08 ± 0.42% | – | – | – | – | – | – | – | –
Cc1ccc(N2CCN(C(=S)SCC(=O)N3CCN(c4ncccn4)CC3)CC2)cc1 [Compound 2g, 2-[4-(Pyrimidin-2-yl)piperazin-1-yl]-2-oxoethyl 4-(p-tolyl)piperazine-1-carbodithioate] | > 1000 µM | 37.50 ± 1.42% | 33.33 ± 0.99% | > 1000 µM | 10.76 ± 0.33% | 18.20 ± 0.82% | – | – | – | – | – | – | – | –
O=C(CSC(=S)N1CCN(c2ccc(Cl)cc2)CC1)N1CCN(c2ncccn2)CC1 [Compound 2h, 2-[4-(Pyrimidin-2-yl)piperazin-1-yl]-2-oxoethyl 4-(4-chlorophenyl)piperazine-1-carbodithioate] | > 1000 µM | 13.45 ± 0.38% | 6.70 ± 0.22% | > 1000 µM | 31.15 ± 1.07% | 40.98 ± 1.20% | – | – | – | – | – | – | – | –
O=C(CSC(=S)N1CCN(c2ccc(F)cc2)CC1)N1CCN(c2ncccn2)CC1 [Compound 2i, 2-[4-(Pyrimidin-2-yl)piperazin-1-yl]-2-oxoethyl 4-(4-fluorophenyl)piperazine-1-carbodithioate] | > 100 µM | – | 39.58 ± 0.95% | > 1000 µM | 27.86 ± 0.66% | 44.26 ± 1.13% | – | – | – | – | – | – | – | –
O=C(CSC(=S)N1CCN(Cc2ccccc2)CC1)N1CCN(c2ncccn2)CC1 [Compound 2k] | > 1000 µM | 19.81 ± 0.59% | 6.15 ± 0.18% | > 1000 µM | 5.87 ± 0.22% | 13.08 ± 0.56% | – | – | – | – | – | – | – | –
O=C(CSC(=S)N1CCN(C(c2ccccc2)c2ccccc2)CC1)N1CCN(c2ncccn2)CC1 [Compound 2m, 2-[4-(Pyrimidin-2-yl)piperazin-1-yl]-2-oxoethyl 4-benzhydrylpiperazine-1-carbodithioate] | 24.1 µM | – | – | > 100 µM | 40.00 ± 0.99% | – | 33.65 ± 0.93% | 28.16 ± 0.87% | 21.88 ± 0.74% | 15.77 ± 0.68% | 10.62 ± 0.41% | selective MAO-A inhibitory activity; also recorded: selective MAO-A enzyme inhibitors | – | –
Cc1ccc(CN2CCN(C(=S)SCC(=O)N3CCN(c4ncccn4)CC3)CC2)cc1 [Compound 2l, 2-[4-(Pyrimidin-2-yl)piperazin-1-yl]-2-oxoethyl 4-(4-methylbenzyl)piperazine-1-carbodithioate] | > 1000 µM | 32.31 ± 0.86% | 15.38 ± 0.61% | – | 15.00 ± 0.68% | – | – | – | – | – | – | – | – | –
CN(C)CCN1CCN(C(=S)SCC(=O)N2CCN(c3ncccn3)CC2)CC1 [Compound 2d, 2-[4-(Pyrimidin-2-yl)piperazin-1-yl]-2-oxoethyl 4-(2-(dimethylamino)ethyl)piperazine-1-carbodithioate] | > 1000 µM | 18.74 ± 0.52% | 7.39 ± 0.30% | > 1000 µM | 8.40 ± 0.23% | 14.37 ± 0.58% | – | – | – | – | – | – | – | –
O=C(CSC(=S)N1CCN(C2CCCCC2)CC1)N1CCN(c2ncccn2)CC1 [Compound 2e, 2-[4-(Pyrimidin-2-yl)piperazin-1-yl]-2-oxoethyl 4-cyclohexylpiperazine-1-carbodithioate] | > 1000 µM | 16.75 ± 0.42% | 5.90 ± 0.15% | > 1000 µM | 5.22 ± 0.18% | 12.60 ± 0.45% | – | – | – | – | – | – | – | –
